Where two headings read alike, the source gives them in different places.
Experiments:
[1] = lower critical dissolution temperature in water; format: physicochemical
Protocol: The lower critical dissolution temperature of the temperature-stimuli-responsive polymer-containing molecules in the present invention in water should be between a temperature close to body temperature and 70° C., which is the maximum temperature for carrier transportation in summer during product distribution (e.g., 35.0 to 70.0° C.). On the other hand, for the temperature-responsive polymer of the present invention, even if the lower critical dissolution temperature is near body temperature, it is easier to suppress cell death after delivery into cells if the temperature is as high as possible. […] In the present invention, the lower critical dissolution temperature of the temperature-responsive polymer in water is measured by differential scanning calorimetry (DSC).
For this reason, the lower critical dissolution temperature of the conventional temperature-stimulus-responsive-polymer containing molecules is preferred to be 37-42° C., which is close to the body temperature. […] In the present invention, the lower critical dissolution temperature of the temperature-stimulus-responsive polymer in water is measured by differential scanning calorimetry (DSC).

[2] = tested on: normal human epidermal fibroblasts; assay: cell uptake of rhodamine B from carriers without stimulus-responsive polymers; format: cell-based; conditions: EPC set at 100%; carrier without stimulus-responsive polymers; vitamin derivative 200 μM; 37° C. 1 hour
Protocol: Create a Delivery carrier into cell in a comparison experiment To investigate the effects of vitamin derivatives with different ATG-CTS activities on cell uptake, the following experiments were performed on delivery carrier into the cell without stimulus-responsive polymers. Six g of glycerin, 1 g of sodium cocoyl glutamate, and 1 g each of three vitamin derivatives (PA, APPS, and EPC) with different ATG-CTS activities were mixed with an electric hand mixer, and 0.1 g of rhodamine B, a fluorescent dye, was added to 20 g of jojoba oil and stirred for 20 minutes. To this, PBS was added to 100 g and stirred for 10 minutes with an electric hand mixer to prevent foaming. 3 types of cell carriers were obtained by completely dispersing them. A Delivery carrier into cell of vitamin derivative-free was also created using the same method as an additive-free control.
Normal human epidermal fibroblasts were incubated in DMEM (low glucose) containing 5% FBS at a density of 5×10^5 cell/well at 37° C. for 24 hours in 6-well plates, and then the medium containing the three delivery carrier into the cell of the invention (final concentration of PA, APPS, and EPC was added to 200 μM each) was replaced with the medium prepared as described above and incubated at 37° C. for 1 hour. Then, the cell were washed five times with PBS and immobilized with 4% paraformaldehyde phosphate buffer solution for 20 min, washed twice with PBS again, and the relative concentration of the fluorescent material taken up into the cell was determined by measuring the fluorescence intensity at the excitation wavelength of 555 (nm) and the fluorescence wavelength of 580 (nm) with a fluorescent microplate reader. cell of delivery carrier into the cell without vitamin derivatives were also cultured in the same way as additive-free controls and the fluorescence intensity was measured.

[3] = tested on: normal human epidermal fibroblasts; assay: cell uptake of Rhodamine B from temperature-responsive liposome carriers with different vitamin derivatives; format: cell-based; conditions: EPC-added groups set to 100%, liposome carrier with DOPEMP (NIPAA/DMAPAA 5%) Cop, rhodamine 1 μM, 35° C. 1 hour, 40° C. 20 min
Protocol: The total amount of the next lipid was 20 mg, the molar ratio of (lipid 1,2-diore oil-3-trimethylammonium propane):(total weight of lamella-forming surfactant diore oil phosphatidylethanolamine and DOPEMP (NIPAA/DMAPAA 5%) Cop) was 3:7. Each was dissolved in chloroform. Further, the fluorescent dye Rhodamine B (1 mg) was added and dissolved. The lower limit critical dissolution temperature of DOPEMP (NIPAA/DMAPAA 5%) Cop used in this experiment in water was 40° C. The molar ratio of (dioleoylphosphatidylethanolamine: DOPEMP (NIPAA/DMAPAA) Cop.) added by total weight was 6.5:0.5.
The solution was transferred to an eggplant flask and the solvent was blown off by an evaporator to prepare a lipid film. EPC, APPS, APS and AA (ascorbic acid), which are […] of Vitamin derivatives having different ATG activity and CTS activity (hereinafter abbreviated as ATG-CTS activity), were prepared. To this lipid film, EPC, APPS, APS and AA (5 mg each) dissolved in PBS (1 ml) were added. The lipid film was hydrated and then dispersed by vortexing. After that, sonication was performed for 30 minutes in an ultrasonic bath to reduce the size of the liposome, and then the liposome was passed through a 200 nm filter using an extruder to adjust the size of the liposome. The average particle size of the examples and comparative examples was 111 nm±10 nm. Then, the liposomes were separated and purified by gel filtration. By the above method, a Delivery carrier into cell of the present invention containing an ATG-CTS activator, a temperature-responsive polymer and a hydrocarbon was prepared.
Next, normal human epidermal fibroblasts were cultured in DMEM (low glucose) containing 5% FBS for 24 hours at 37° C. at a density of 5×10^5 cell/well in 6-well plates, and then the medium containing four delivery carrier into the cell (added to achieve a final rhodamine concentration of 1 μM), including the embodiments and comparative examples prepared as described above, was exchanged for each medium and cultured at 35° C. for 1 hour. After that, it was incubated at 40° C. for 20 min, and then at 35° C. for 1 h. It was then washed five times with PBS and immobilized with 4% paraformaldehyde phosphate buffer solution for 20 min, washed twice with PBS again, and the relative concentration of the fluorescent material taken up into the cell was determined by measuring the fluorescence intensity with a fluorescent microplate reader. cell of delivery carrier into the cell without vitamin derivatives were also cultured in the same way as additive-free controls and the fluorescence intensity was measured.

[4] = format: physicochemical; conditions: for Remaining rate: buffer; for Evaluation results: 0.02 mol/L in purified water, 50° C., one month
Protocol: APS, APPS, and EPC so that the concentration of each ascorbate derivative is 0.02 mol/L. Dissolve them in purified water and store them at 50° C. for one month to determine their potency in a high performance liquid The starting titers of each substance were measured by chromatography, and the results after one month were used as the starting titer of 100%. If more than 95% of the result was remaining in the material, it is ∘, and if less than 95% or more than 80% of the result was less than 95%, it is […]. […] Sodium ascorbic acid-2-phosphate: APS; Sodium ascorbic acid-2-phosphate-6-palmitate 3: APPS; Potassium tocopheryl ascorbic acid-2-phosphate: EPC; ascorbic acid: AA.

[5] = format: physicochemical; conditions: for Remaining rate: buffer; for Evaluation results: 0.5% by weight in purified water, defoaming time
Protocol: The ascorbic acid derivatives of APS, APPS, EPC, and AA were dissolved in purified water at a concentration of 0.5% by weight, and the time to defoam the bubbles was measured with a sponge under the same conditions. The results are shown in Table 14, where the defoaming time of the APPS with the longest defoaming time was set to 100% and the defoaming time of each was calculated as a percentage, with 90% or more being considered O (best), 80% or more to 90% or less being considered B (good), and 80% or less being considered X (poor). Description of abbreviations: ascorbic acid-2-phosphateNa:APS, ascorbic acid-2-phosphate-6-palmitate3Na:APPS, ascorbic acid-2-tocopheryl potassium:EPC, ascorbic acid:AA.

[6] = concentration in the formulation increased to 1%
HMV-II cell [7] = assay: Cellular damage assessment (Cell Counting Kit-8); format: cell-based; conditions: Cell Counting Kit-8, absorbance at 450 nm
Protocol: HMV-II cell were seeded at a concentration of 1×10^5 cell/mL in 500 μL/well on a 6-well plate. After incubation for 24 hours, 200 μM of IBM X, a melanin-producing stimulant, was added. APS was added to 100 μM for each pH-responsive delivery carrier into cell of A-3, B-3, C-3, and D-3. 2 hours later, the cell were washed with PBS, 200 μM of IVMX was added again, and incubated for 70 hours. To this, 10 μL of Cell Counting Kit-8 was added, and the cytotoxicity of sample addition was compared by measuring absorbance at 450 nm after 1 h of incubation.

HMV-II cell [8] = assay: Melanin production inhibition test; format: cell-based; conditions: 200 μM, no carrier
Protocol: Pre-treatment: The following melanin production inhibition tests were performed using A-2, B-2, C-2, and D-2 pH-responsive delivery carrier into the cell (A-3, B-3, C-3, and D-3): HMV-II cell were seeded in 24 well dishes at a concentration of 1×10^5 cell/mL, incubated for 24 hours, and then added 200 μM of IBMX and A-3, B-3, C-3, and D-3 pH-responsive delivery carrier into the cell (A-3, B-3, C-3, and D-3) at an APS concentration of 100 μM. 2 hours later, the cell were washed with PBS, 200 μM of IBMX was added again, and incubated for 70 hours. The cell were then solubilized with 200 μL of NaOH at 1 mol/L, and melanin was extracted and quantified by measuring the absorbance at 405 nm. The melanin production was increased about 3-fold by the addition of IBMX (no carrier for pH-responsive cell delivery). When the amount of melanin produced at this time was assumed to be 100%, the amount of melanin produced by A-3 addition of the invention was 48%, B-3 was 78%, C-3 was 85%, and D-3 was 90%.

With “Dioleoylephosphatidylethanolamine mercaptopropionyl (isopropylacrylamide/dimethylaminopropylacrylamide 5%) copolymer [DOPEMP (NIPAA/DMAPAA 5%) Cop]” the “lower critical dissolution temperature in water” value [1] was 40 °C.
For `CCCCCCCCCCCCCCCC(=O)OC[C@H](O)[C@H]1OC(=O)C(O)=C1O` [PA, ascorbyl palmitate], the “fluorescence intensity (fluorescent material taken up into the cell)” value (from here on “fluorescence intensity”) [2] was 58%.
In the case of `O=C1O[C@H]([C@@H](O)CO)C(O)=C1O` [AA, ascorbic acid, reference compound], the “fluorescence intensity” value [3] is reported as 52%, the Remaining rate ([4]; 1 month, 0.02 mol/L) is reported as 56% and the Remaining rate [5] is reported as 1%.
With `CCCCCCCC(=O)OC1=C(OCC(O)CO)C(=O)OC1C(O)CO` (stereo not drawn) [GOVC, 2-glyceryl-3-Caprylyl ascorbate] the skin irritation [6] was “no skin irritation was observed”.
With `CC(C)Cn1c(=O)n(C)c(=O)c2[nH]cnc21` [IBMX] the cytotoxicity (HMV-II cell [7]) was “cytotoxicity was confirmed” and the “increase of melanin production” value (HMV-II cell [8]) was “about 3 fold”.
With `O=C1O[C@H]([C@@H](O)CO)C(O)=C1OP(=O)([O-])[O-].[Na+].[Na+]` [APS, Sodium ascorbic acid-2-phosphate] the “fluorescence intensity” value [3] was 49%, the Evaluation results [4] was “Δ” and the Remaining rate ([4]; 1 month, 0.02 mol/L) was 91%. For the same compound, the Remaining rate [5] was 3%.
With `CCCCCCCCCCCCCCCC(=O)OC[C@H](O)C1OC(=O)C(OP(=O)([O-])[O-])=C1[O-].[Na+].[Na+].[Na+]` (stereo partly drawn) [APPS, Sodium ascorbic acid-2-phosphate-6-palmitate 3] the “fluorescence intensity” value [3] was 78%, the Remaining rate [4] was 78% and the “fluorescence intensity” value [2] was 76%. The Evaluation results [5] was “○” and the Remaining rate [5] was 100%.
With `CCCCCCCC(=O)OC1=C(OCC(O)CO)C(C(O)CO)OC1=O` (stereo not drawn) [OGVC, 3-glyceryl-2-Caprylyl ascorbate] the skin irritation [6] was “no skin irritation was observed”.
For `Cc1c(C)c2c(c(C)c1OP(=O)([O-])OC1=C(O)[C@@H]([C@@H](O)CO)OC1=O)CC[C@@](C)(CCC[C@H](C)CCC[C@H](C)CCCC(C)C)O2.[K+]` [EPC, Potassium tocopheryl ascorbic acid-2-phosphate], the “fluorescence intensity” value [3] was 100%, the Evaluation results [4] was “○” and the Remaining rate [4] was 96%. For the same compound, the “fluorescence intensity” value [2] was 100%, the Evaluation results [5] was “Δ” and the Remaining rate [5] was 85%.

From patent US12642769B2, “Delivery carrier into cell” (Kabusikikaisya ITO, priority 2019, dated 2026)
